Among the test systems are 786-0; A498; ACHN; CAKI-1; HCT-15; HL-60; HOP-18; HT-29; MOLT-4; NCI-H226; NCI-H460; OVCAR-8; SK-MEL-2; SK-MEL-5; SW-620; RXF 393; HCT-116; MDA-N; PC-3; T47D.
Test in all cases: NCI-60 cell line screen, 48 h

Molecules are shown by their SMILES.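 All cell lines were grown in 96-well plates and treated with compound for 48 hours. GI50 marks 50% less growth.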 Calls of active or inactive are those of the source. Rule as the data show it: active = GI50 up to about 1.1 µM and inactive = higher.

Take `CCOc1ccc2c(c1)[n+]([O-])c(-c1ccc(Br)cc1)c(N)[n+]2[O-]`: the GI50 with 786-0 is > 100 µM (inactive); with A498 it was 45.3 µM (inactive); in the test with ACHN, 47.2 µM (inactive); in the test with CAKI-1 it was 27.2 µM (inactive); in the test with HCT-15, 47 µM; in the test with HL-60, 31.3 µM (inactive). Also, the GI50 in the test with HOP-18 was 57.4 µM (inactive); in the test on HT-29 it was 64.4 µM (inactive); in the test on MOLT-4 it was 40.9 µM (inactive); in the test on NCI-H226, > 100 µM (inactive); in the test on NCI-H460 it was 47.3 µM (inactive); in the test with OVCAR-8, 57.7 µM (inactive). Further, the GI50 was > 100 µM (inactive) in the test with SK-MEL-2, 20.8 µM (inactive) with SK-MEL-5 and > 100 µM (inactive) in the test with SW-620.

As for `O=C(O)CN(c1ccc(F)cc1)S(=O)(=O)c1ccccc1`, the GI50 in the test on 786-0 is > 100 µM (inactive); in the test on A498 it was > 100 µM (inactive); in the test with ACHN, > 100 µM (inactive); in the test with CAKI-1, > 100 µM (inactive); in the test with HCT-15, above 100 µM; in the test on HL-60, > 100 µM (inactive). In addition, the GI50 with HOP-18, in the test with HT-29, in the test with MOLT-4, in the test on NCI-H226, in the test on NCI-H460 and in the test on OVCAR-8 was > 100 µM (inactive) each time. The GI50 in the test with RXF 393, in the test with SK-MEL-2, in the test on SK-MEL-5 and in the test with SW-620 was > 100 µM (inactive) in each case.

Regarding `Cc1c(C)n(COCCO)c2ncnc(N)c12`, the GI50 in the test on 786-0 was > 100 µM (inactive); with A498, > 100 µM (inactive); with ACHN, > 100 µM (inactive); with CAKI-1, > 100 µM (inactive); with HCT-15, above 100 µM; in the test with HL-60 it was > 100 µM (inactive). The GI50 in the test on HOP-18, in the test on HT-29, in the test with MOLT-4, in the test with NCI-H226, with NCI-H460 and with OVCAR-8 was > 100 µM (inactive) in each case. For the same compound, the GI50 with RXF 393, in the test with SK-MEL-2, in the test on SK-MEL-5 and in the test on SW-620 was > 100 µM (inactive) throughout.

Take `O=C(O)c1cc2c3ccccc3nc-2c[nH]1`: the GI50 is > 100 µM (inactive) in the test on 786-0; 10 µM (inactive) in the test with A498; > 100 µM (inactive) in the test on ACHN; > 100 µM (inactive) with CAKI-1; > 100 µM (inactive) in the test with HCT-116; above 100 µM with HCT-15. Further, the GI50 in the test on HL-60, in the test on HOP-18, in the test on HT-29, in the test with MOLT-4, in the test on NCI-H226 and in the test on NCI-H460 was > 100 µM (inactive) each time. The GI50 in the test with OVCAR-8, in the test with RXF 393, with SK-MEL-5 and in the test on SW-620 was > 100 µM (inactive) each time.

For `COC(=O)CCC(=O)CC(=O)C(=O)Nc1ccc(F)cc1`, the GI50 in the test on 786-0 was > 100 µM (inactive); in the test with A498, > 100 µM (inactive); with ACHN, > 100 µM (inactive); with CAKI-1 it was > 100 µM (inactive); with HCT-116 it was > 100 µM (inactive); in the test with HCT-15 it was above 100 µM. Further, the GI50 with HOP-18, in the test on HT-29, in the test on MOLT-4, in the test on NCI-H226, in the test with NCI-H460 and in the test on OVCAR-8 was > 100 µM (inactive) each time. Moreover, the GI50 in the test on RXF 393 was 54 µM (inactive); with SK-MEL-2, > 100 µM (inactive); in the test on SK-MEL-5 it was > 100 µM (inactive); in the test with SW-620, > 100 µM (inactive).

Turning to `N#C/C(=C/c1ccsc1)C(=O)c1ccccc1`, the GI50 with 786-0 was > 100 µM (inactive); with ACHN, > 100 µM (inactive); in the test with CAKI-1, > 100 µM (inactive); in the test on HCT-116, > 100 µM (inactive); in the test on HCT-15, above 100 µM; with HL-60, > 100 µM (inactive). In addition, the GI50 in the test with HOP-18, in the test with HT-29, in the test on MOLT-4, with NCI-H226, in the test with NCI-H460 and in the test with OVCAR-8 was > 100 µM (inactive) each time. Also, the GI50 in the test on RXF 393, in the test with SK-MEL-2, in the test with SK-MEL-5 and with SW-620 was > 100 µM (inactive) throughout.

Consider `COC(=O)C1=Cc2cn(S(=O)(=O)c3ccc(C)cc3)c3cccc(c23)C(C=C(C)C)N1C(C)=O` (centres undefined), for which the GI50 was > 100 µM (inactive) in the test on 786-0; 68.9 µM (inactive) with A498; 18.8 µM (inactive) in the test on ACHN; 12.6 µM (inactive) in the test on CAKI-1; 11.1 µM (inactive) with HCT-116; 5.56 µM (inactive) with HL-60. Moreover, the GI50 with HOP-18 is 38.5 µM (inactive); in the test on HT-29, 27.9 µM (inactive); with MOLT-4 it was 3.1 µM (inactive); in the test with NCI-H226, > 100 µM (inactive); with OVCAR-8, 84.9 µM (inactive); with RXF 393, 13.8 µM (inactive). Moreover, the GI50 in the test with SK-MEL-2 was 4.68 µM (inactive); with SK-MEL-5 it was 10.5 µM (inactive); with SW-620 it was 32.7 µM (inactive).

As to `O=C1C=CC(=O)c2c1ccc1c3ccccc3n(-c3ccccn3)c21`, the GI50 is 15.2 µM (inactive) in the test with 786-0; 21.2 µM (inactive) with ACHN; 13.2 µM (inactive) in the test on HCT-116; 19.1 µM with HCT-15; 3.5 µM (inactive) with HL-60; 14.8 µM (inactive) in the test on HOP-18. Also, the GI50 in the test on HT-29 is 28.4 µM (inactive); in the test on MOLT-4, 4.8 µM (inactive); with NCI-H226, 13.2 µM (inactive); in the test on NCI-H460 it was > 100 µM (inactive); with OVCAR-8 it was 24.7 µM (inactive); in the test on SK-MEL-2 it was 45.4 µM (inactive).

Turning to `COC(=O)C1=C(C(=O)OC)C2(C(=O)OC)OC1(OC)C(C1(C(=O)OC)C(C(=O)OC)=C1C(=O)OC)=C2C(=O)OC` (centres undefined), the GI50 was > 100 µM (inactive) with 786-0; > 100 µM (inactive) with ACHN; > 100 µM (inactive) in the test with HCT-116; above 100 µM in the test with HCT-15; > 100 µM (inactive) in the test on HL-60; > 100 µM (inactive) in the test on HOP-18. Besides, the GI50 in the test with HT-29, in the test with MOLT-4, with NCI-H226, in the test with NCI-H460, in the test on OVCAR-8 and with RXF 393 was > 100 µM (inactive) throughout. The GI50 with SK-MEL-2, in the test on SK-MEL-5 and in the test with SW-620 was > 100 µM (inactive) throughout.

For `C=CC1=CSNN1`, the GI50 in the test with 786-0 was > 100 µM (inactive); in the test with A498, > 100 µM (inactive); in the test with ACHN, > 100 µM (inactive); in the test on CAKI-1, > 100 µM (inactive); in the test with HCT-15 it was above 100 µM; in the test on HL-60, > 100 µM (inactive). The GI50 with HOP-18, in the test with HT-29, in the test on MOLT-4, with NCI-H460, in the test on OVCAR-8 and with RXF 393 was > 100 µM (inactive) each time. The GI50 in the test on SK-MEL-2, with SK-MEL-5 and in the test with SW-620 was > 100 µM (inactive) in each case.

With `CC(=O)/C(=C\n1c(=S)[nH]c2ccc([N+](=O)[O-])cc21)C(=O)Nc1ccccc1C`, the GI50 in the test on 786-0 is > 100 µM (inactive); with A498, 96.8 µM (inactive); with ACHN, > 100 µM (inactive); in the test with CAKI-1 it was > 100 µM (inactive); in the test with HCT-116, > 100 µM (inactive); in the test with HCT-15 it was above 100 µM. The GI50 in the test with HL-60, in the test on HT-29, in the test with MDA-N, in the test with MOLT-4, in the test with NCI-H226 and in the test with NCI-H460 was > 100 µM (inactive) in each case. The GI50 with OVCAR-8 was > 100 µM (inactive); in the test with PC-3, > 100 µM (inactive); in the test on RXF 393, > 100 µM (inactive); in the test with SK-MEL-2, > 100 µM (inactive); with SK-MEL-5, 78.3 µM (inactive); in the test with SW-620, > 100 µM (inactive). For the same compound, in the test on T47D, the GI50 was > 100 µM (inactive).

`O=C1CC(n2cccc2)c2c(Br)sc(Br)c21` (centres undefined): the GI50 is 18.3 µM (inactive) in the test with 786-0; 24.9 µM (inactive) in the test on A498; 17.5 µM (inactive) in the test on ACHN; 6.49 µM (inactive) with CAKI-1; 15.3 µM (inactive) in the test with HCT-116; 12.8 µM with HCT-15. Also, the GI50 in the test with HL-60 was 15.1 µM (inactive); in the test with HT-29, 16.6 µM (inactive); with MDA-N, 16.3 µM (inactive); with MOLT-4, 8.93 µM (inactive); in the test on NCI-H226, 18.8 µM (inactive); with NCI-H460 it was 18 µM (inactive). In addition, the GI50 in the test with OVCAR-8 is 15.2 µM (inactive); in the test with PC-3 it was 16.4 µM (inactive); with RXF 393, 20.6 µM (inactive); in the test on SK-MEL-2 it was 14.5 µM (inactive); in the test on SK-MEL-5, 16 µM (inactive); with SW-620, 12.4 µM (inactive). Moreover, the GI50 with T47D was 18.1 µM (inactive).

Turning to `Nc1ccn(CCCC(c2ccccc2)P(=O)(O)O)c(=O)n1` (centres undefined), the GI50 with 786-0 was > 100 µM (inactive); with A498 it was > 100 µM (inactive); with ACHN, > 100 µM (inactive); in the test with CAKI-1, > 100 µM (inactive); with HCT-116, > 100 µM (inactive); with HCT-15 it was above 100 µM. Also, the GI50 with HL-60, in the test on HOP-18, with HT-29, in the test with NCI-H460, in the test with OVCAR-8 and with SK-MEL-2 was > 100 µM (inactive) throughout. The GI50 in the test on SK-MEL-5 and in the test with SW-620 was > 100 µM (inactive) in each case.

The record behind these values is ChEMBL document CHEMBL1201862, “PubChem BioAssay data set” (2004).
